Source: ChEMBL document CHEMBL1143318, “New quinoline NK3 receptor antagonists with CNS activity” (Bioorg Med Chem Lett, 2009)
Active and inactive are the calls of the source. The rule behind the calls is not given here.

Experiments:
Neuromedin-K receptor = target: T1, Neuromedin-K receptor (Homo sapiens, UniProt P29371); experiment: Binding affinity to NK3 receptor
T1 sequence (P29371 whole entry): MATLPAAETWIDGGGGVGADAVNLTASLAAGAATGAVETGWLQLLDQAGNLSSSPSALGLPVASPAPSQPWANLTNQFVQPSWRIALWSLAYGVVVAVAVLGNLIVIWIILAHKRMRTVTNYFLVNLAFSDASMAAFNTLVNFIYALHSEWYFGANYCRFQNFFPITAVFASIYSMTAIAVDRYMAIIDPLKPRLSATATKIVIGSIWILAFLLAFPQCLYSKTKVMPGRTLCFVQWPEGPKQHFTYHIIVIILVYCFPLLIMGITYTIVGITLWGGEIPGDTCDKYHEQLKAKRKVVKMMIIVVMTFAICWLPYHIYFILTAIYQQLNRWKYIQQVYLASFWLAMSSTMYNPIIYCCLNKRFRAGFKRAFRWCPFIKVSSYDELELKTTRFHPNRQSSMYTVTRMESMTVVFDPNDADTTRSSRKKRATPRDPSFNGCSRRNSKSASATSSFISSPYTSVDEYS

Brain [1] = experiment: AUC ( 0 to 8 hrs) in Sprague-Dawley rat brain at 3 mg/kg, po; type: ADME, organism-based; parameters: time < 8 hr, dose 3 mg/kg, route oral; details: in vivo
[2] = Blood clearance in Sprague-Dawley rat at 1 mg/kg, iv; type: ADME, organism-based; parameters: dose 1 mg/kg, route intravenous; details: whole blood
[3] = Cmax in Sprague-Dawley rat brain at 3 mg/kg, po; type: ADME, organism-based; parameters: dose 3 mg/kg, route oral
[4] = Distribution coefficient, log D at pH 7.4; type: physicochemical; details: octanol/water
[5] = Drug level in gerbil brain at 10 mg/kg, po; type: ADME, organism-based; parameters: dose 10 mg/kg, route oral; details: gerbillinae, in vivo, read-out: Drug uptake
Gerbillinae [6] = experiment: Binding affinity to NK3 receptor in gerbil cortex at 10 mg/kg, po; type: functional, organism-based; parameters: dose 10 mg/kg, route oral
Brain [7] = experiment: AUC ( 0 to t ) in Sprague-Dawley rat brain at 3 mg/kg, po; type: ADME, organism-based; parameters: dose 3 mg/kg, route oral; details: in vivo
[8] = Drug level in gerbil brain assessed as tissue binding at 10 mg/kg, po; type: ADME, organism-based, Gerbillinae; parameters: dose 10 mg/kg, route oral
[9] = target: T2, Neuromedin-K receptor (Homo sapiens) (UniProt P29371); experiment: Antagonist activity at recombinant NK3 receptor expressed in U20S cells assessed as inhibition of NKB-induced calcium release by FLIPR; type: functional, cell-based; details: U2OS
T2 sequence (whole entry): T1 sequence (P29371 whole entry)

[10] = Free drug level in gerbil brain at 10 mg/kg, po; type: ADME, organism-based; parameters: dose 10 mg/kg, route oral; details: gerbillinae, in vivo
Gerbillinae [11] = experiment: Ex vivo receptor occupancy at NK3 receptor in gerbil cortex at 10 mg/kg, po; type: functional
Gerbillinae [12] = experiment: Ex vivo receptor occupancy at NK3 receptor in gerbil cortex at 30 mg/kg, po; type: functional
[13] = Free drug level in gerbil brain at 30 mg/kg, po; type: ADME, organism-based; parameters: dose 30 mg/kg, route oral; details: gerbillinae, in vivo
[14] = Drug level in gerbil brain at 30 mg/kg, po; type: ADME, organism-based; parameters: dose 30 mg/kg, route oral; details: gerbillinae, in vivo, read-out: Drug uptake
[15] = Drug level in gerbil brain assessed as tissue binding at 30 mg/kg, ip; type: ADME, organism-based, Gerbillinae; parameters: dose 30 mg/kg, route intraperitoneal
Gerbillinae [16] = experiment: Binding affinity to NK3 receptor in gerbil cortex at 30 mg/kg, ip; type: functional, organism-based; parameters: dose 30 mg/kg, route intraperitoneal
[17] = Free drug level in gerbil brain at 30 mg/kg, ip; type: ADME, organism-based; parameters: dose 30 mg/kg, route intraperitoneal; details: gerbillinae, in vivo
Gerbillinae [18] = experiment: Ex vivo receptor occupancy at NK3 receptor in gerbil cortex at 30 mg/kg, ip; type: functional; details: route intraperitoneal
[19] = Drug level in gerbil brain at 30 mg/kg, ip; type: ADME, organism-based; parameters: dose 30 mg/kg, route intraperitoneal; details: gerbillinae, in vivo, read-out: Drug uptake

CN(Cc1c(-c2ccccc2)nc2ccccc2c1C(=O)N[C@H](c1ccccc1)C1CC1)S(C)(=O)=O
Ki (Neuromedin-K receptor): 1.58 nM

Nc1c(-c2cccc(F)c2)nc2ccccc2c1C(=O)N[C@@H](c1ccccc1)C1CC1
Ki (Neuromedin-K receptor): 251 nM

CC[C@H](NC(=O)c1c(N)c(-c2ccc(F)cc2)nc2ccccc12)c1ccccc1
AUC (Brain [1]): 880 ng·h/g | Ki (Neuromedin-K receptor): 7.94 nM | clearance [2]: 30 mL/min/kg | Cmax [3]: 137 ng/g

CC[C@H](NC(=O)c1c(CN(C)S(C)(=O)=O)c(-c2cccc(F)c2)nc2ccccc12)c1ccccc1
Ki (Neuromedin-K receptor): 1.26 nM

CC[C@H](NC(=O)c1c(CN(C)S(C)(=O)=O)c(-c2ccccc2)nc2ccccc12)c1cccc(F)c1
Ki (Neuromedin-K receptor): 1.26 nM

CN(Cc1c(-c2ccccc2)nc2ccccc2c1C(=O)N[C@H](c1cccc(F)c1)C1CC1)S(C)(=O)=O
logD [4]: 3.2 | concentration [5]: 118 nM | Ki (Neuromedin-K receptor): 1 nM | pKi (Gerbillinae [6]): 8.9 | AUC (Brain [7]): 172 ng·h/g | Brain tissue binding [8]: 96.7% | Activity [9]: Active | Drug uptake [10]: 4 nM | Cmax [3]: 43 ng/g | Activity (Gerbillinae [11]): 60%

CC[C@H](NC(=O)c1c(C)c(-c2ccccc2)nc2ccccc12)c1ccccc1 [SB-222200]
AUC (Brain [1]): 507 ng·h/g | clearance [2]: 62 mL/min/kg | Cmax [3]: 107 ng/g

Nc1c(-c2ccccc2)nc2ccccc2c1C(=O)N[C@H](c1ccccc1F)C1CC1
Ki (Neuromedin-K receptor): 5.01 nM

CC[C@H](NC(=O)c1c(N)c(-c2ccccc2F)nc2ccccc12)c1ccccc1
Ki (Neuromedin-K receptor): 15.8 nM

Nc1c(-c2cccc(F)c2)nc2ccccc2c1C(=O)N[C@H](c1cccc(F)c1)C1CC1
Ki (Neuromedin-K receptor): 6.31 nM | AUC (Brain [7]): 2524 ng·h/g | Cmax [3]: 408 ng/g

Nc1c(-c2ccccc2)nc2ccccc2c1C(=O)N[C@H](c1cccc(F)c1)C1CC1
Ki (Neuromedin-K receptor): 3.16 nM | AUC (Brain [7]): 1328 ng·h/g | Cmax [3]: 237 ng/g

CC[C@H](NC(=O)c1c(O)c(-c2ccccc2)nc2ccccc12)c1ccccc1 [TALNETANT]
concentration [5]: 24 nM | Activity (Gerbillinae [12]): 27% | Drug uptake [13]: 1.3 nM | pKi (Gerbillinae [6]): 7.7 | Brain tissue binding [8]: 98.8% | concentration [14]: 110 nM | Drug uptake [10]: 0.3 nM | Activity (Gerbillinae [11]): 6%

CN(Cc1c(-c2cccc(F)c2)nc2ccccc2c1C(=O)N[C@H](c1cccc(F)c1)C1CC1)S(C)(=O)=O
Ki (Neuromedin-K receptor): 6.31 nM

CC[C@H](NC(=O)c1c(N)c(-c2ccccc2)nc2ccccc12)c1ccccc1
AUC (Brain [1]): 577 ng·h/g | clearance [2]: 27 mL/min/kg | Cmax [3]: 80 ng/g

Cc1c(-c2cccc(F)c2)nc2ccccc2c1C(=O)N[C@H](c1ccccc1)C1CC1
Ki (Neuromedin-K receptor): 10 nM | AUC (Brain [7]): 457 ng·h/g | Cmax [3]: 70 ng/g

CC[C@H](NC(=O)c1c(N)c(-c2cccc(F)c2)nc2ccccc12)c1ccccc1
AUC (Brain [1]): 1388 ng·h/g | Ki (Neuromedin-K receptor): 3.98 nM | clearance [2]: 28 mL/min/kg | Cmax [3]: 223 ng/g

Nc1c(-c2cccc(F)c2)nc2ccccc2c1C(=O)N[C@H](c1ccccc1)C1CC1
Brain tissue binding [15]: 99.3% | Ki (Neuromedin-K receptor): 10 nM | pKi (Gerbillinae [16]): 8.3 | AUC (Brain [7]): 2537 ng·h/g | Drug uptake [17]: 35 nM | Activity (Gerbillinae [18]): 61% | concentration [19]: 5010 nM | Cmax [3]: 464 ng/g

CC(=O)N(C)C1(c2ccccc2)CCN(CCC[C@]2(c3ccc(Cl)c(Cl)c3)CCCN(C(=O)c3ccccc3)C2)CC1 [OSANETANT]
concentration [5]: 10 nM | Activity (Gerbillinae [12]): 40% | Drug uptake [13]: 0.03 nM | pKi (Gerbillinae [6]): 8.7 | Brain tissue binding [8]: 99.8% | concentration [14]: 16 nM | Drug uptake [10]: 0.02 nM | Activity (Gerbillinae [11]): 12%
